Columns and labels:
[1] = tested on: HCC70 cells; assay: Inhibition of cell proliferation (CyQUANT Direct), HCC70; format: cell-based, human; conditions: Homo sapiens, HCC70, 72-hour
Protocol: (§1) HCC70 and MB453 cells are cell lines derived from human triple negative breast cancer COV318 and COV504 cells are cell lines derived from human ovarian cancer. Representative compounds of the invention were tested at different concentrations (from 4 μM to 126.4 pM; 0.5 log serial dilutions) for their ability to inhibit the proliferation of each of these cell lines. Known CDK inhibitors dinaciclib or N-((1S,3R)-3-((5-chloro-4-(1H-indol-3-yl) pyrimidin-2-yl)amino)cyclohexyl)-5-((E)-4-(dimethylamino)but-2-enamido)picolinamide and triptolide were used as positive controls. Cells were seeded at approximately 2,000 cells/well and grown in ATCC-formulated RPMI-1640 Medium (ATCC 30-2001)+10% FBS. The cells were cultured at 37° C. in a humidified chamber in the presence of 5% CO2. Proliferation assays were conducted over a 72-hour time period. CyQUANT® Direct Cell Proliferation Assay (Life Technologies, Chicago, Ill. USA) was used to assess the anti-proliferative effects of the compounds following manufacturer's directions and utilizing the reagents supplied with the CyQUANT® Direct Cell kit.

[2] = tested on: COV318 cells; assay: Inhibition of cell proliferation (CyQUANT Direct), COV318; format: cell-based, human; conditions: Homo sapiens, COV318, 72-hour
Protocol: as §1

[3] = tested on: COV504 cells; assay: Inhibition of cell proliferation (CyQUANT Direct), COV504; format: cell-based, human; conditions: Homo sapiens, COV504, 72-hour
Protocol: as §1

[4] = tested on: MB453 cells; assay: Inhibition of cell proliferation (CyQUANT Direct), MB453; format: cell-based, human; conditions: Homo sapiens, MB453, 72-hour
Protocol: as §1

[5] = biological target: CDK2/Cyclin E1 complex (Homo sapiens, UniProt P24941); assay: CDK2 kinase inhibition assay (Caliper/LabChip EZ Reader)
[6] = biological target: CDK7/Cyclin H/MAT1 complex (Homo sapiens, UniProt P50613); assay: CDK7 kinase inhibition assay (Caliper/LabChip EZ Reader)
[7] = biological target: CDK9/Cyclin T1 complex (Homo sapiens, UniProt P50750); assay: CDK9 kinase inhibition assay (Caliper/LabChip EZ Reader)
Protocol: (§2) Compounds described herein were assayed for inhibition of CDK7, CDK9, CDK12, and CDK2 activity at Biortus Biosciences (Jiangyin, Jiangsu Province, P.R. of China) using kinase assays for each CDK developed with a Caliper/LabChip EZ Reader (Perkin Elmer, Waltham, Mass.).
(§3) Furthermore, the CDK9 inhibition assay used CDK9/Cyclin T1 complex (8 nM) and “5-FAM-CDK9tide” peptide substrate (2 μM, synthesized fluorophore-labeled peptide with the following sequence: 5-FAM-GSRTPMY-NH2 (SEQ ID NO:2) where 5-FAM is defined above and NH2 signifies a C-terminal amide) with 10 mM MgCl2 in the buffer composition listed above. The CDK12 inhibition assay used CDK12 (aa686-1082)/Cyclin K complex (50 nM) and “5-FAM-CDK9tide” (2 μM) as defined above, with 2 mM MgCl2 in the buffer composition above. Additionally, the CDK2 inhibition assay used CDK2/Cyclin E1 complex (0.5 nM) and “5-FAM-CDK7tide” (2 μM; defined above) with 2 mM MgCl2 in the buffer composition above.
(§4) The incubation period at 27° C. for each CDK inhibition assay was chosen such that the fraction of phosphorylated peptide product produced in each assay, relative to the total peptide concentration, was approximately 20% (±5%) for the uninhibited kinase (35 min. for CDK7, 35 min. for CDK2, 3 hr. for CDK12, 15 min. for CDK9).

[8] = biological target: CDK12 (aa686-1082)/Cyclin K complex (Homo sapiens, UniProt Q9NYV4); assay: CDK12 kinase inhibition assay (Caliper/LabChip EZ Reader)
Sequence of CDK12 (aa686-1082)/Cyclin K complex (Q9NYV4 686-1082): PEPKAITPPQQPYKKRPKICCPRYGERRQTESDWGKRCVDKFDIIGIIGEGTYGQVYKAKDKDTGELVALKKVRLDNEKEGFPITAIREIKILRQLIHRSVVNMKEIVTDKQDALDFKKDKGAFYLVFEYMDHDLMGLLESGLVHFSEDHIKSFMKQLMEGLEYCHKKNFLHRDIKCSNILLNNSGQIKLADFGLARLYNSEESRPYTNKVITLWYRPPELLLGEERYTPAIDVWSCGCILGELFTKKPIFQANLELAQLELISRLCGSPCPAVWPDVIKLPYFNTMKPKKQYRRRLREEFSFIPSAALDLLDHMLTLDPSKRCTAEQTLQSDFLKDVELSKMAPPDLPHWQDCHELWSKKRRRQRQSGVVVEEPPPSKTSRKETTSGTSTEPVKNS
Sequence of CDK12 (aa686-1082)/Cyclin K complex (O75909 whole entry partner, the tested form may be a part): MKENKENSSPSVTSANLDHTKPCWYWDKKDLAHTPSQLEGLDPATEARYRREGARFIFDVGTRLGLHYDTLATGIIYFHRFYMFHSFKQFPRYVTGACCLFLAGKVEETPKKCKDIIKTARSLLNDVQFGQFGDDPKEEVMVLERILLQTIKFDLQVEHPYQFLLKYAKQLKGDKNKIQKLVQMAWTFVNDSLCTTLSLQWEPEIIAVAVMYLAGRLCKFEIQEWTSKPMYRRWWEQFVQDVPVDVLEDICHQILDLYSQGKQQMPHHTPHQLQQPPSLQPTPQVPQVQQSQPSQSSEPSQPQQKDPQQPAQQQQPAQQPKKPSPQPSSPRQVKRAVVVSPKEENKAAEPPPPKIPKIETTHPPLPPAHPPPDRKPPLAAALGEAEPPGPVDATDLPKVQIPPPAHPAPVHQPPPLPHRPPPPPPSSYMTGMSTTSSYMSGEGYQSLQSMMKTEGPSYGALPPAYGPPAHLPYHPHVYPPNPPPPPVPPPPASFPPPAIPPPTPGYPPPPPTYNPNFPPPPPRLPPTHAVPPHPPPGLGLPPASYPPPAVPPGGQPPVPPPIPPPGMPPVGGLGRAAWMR
Protocol: as §2, §3, §4

Sequence of CDK7/Cyclin H/MAT1 complex (P50613 whole entry): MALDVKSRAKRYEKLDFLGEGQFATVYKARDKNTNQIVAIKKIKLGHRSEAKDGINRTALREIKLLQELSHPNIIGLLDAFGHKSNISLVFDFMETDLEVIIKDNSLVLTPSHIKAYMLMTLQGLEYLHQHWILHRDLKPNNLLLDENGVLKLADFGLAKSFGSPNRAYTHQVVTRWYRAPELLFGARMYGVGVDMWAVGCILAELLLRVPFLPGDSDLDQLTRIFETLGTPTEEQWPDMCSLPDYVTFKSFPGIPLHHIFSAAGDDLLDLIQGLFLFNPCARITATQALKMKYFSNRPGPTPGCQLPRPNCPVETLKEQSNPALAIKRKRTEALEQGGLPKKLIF
Sequence of CDK7/Cyclin H/MAT1 complex (P51946 whole entry partner): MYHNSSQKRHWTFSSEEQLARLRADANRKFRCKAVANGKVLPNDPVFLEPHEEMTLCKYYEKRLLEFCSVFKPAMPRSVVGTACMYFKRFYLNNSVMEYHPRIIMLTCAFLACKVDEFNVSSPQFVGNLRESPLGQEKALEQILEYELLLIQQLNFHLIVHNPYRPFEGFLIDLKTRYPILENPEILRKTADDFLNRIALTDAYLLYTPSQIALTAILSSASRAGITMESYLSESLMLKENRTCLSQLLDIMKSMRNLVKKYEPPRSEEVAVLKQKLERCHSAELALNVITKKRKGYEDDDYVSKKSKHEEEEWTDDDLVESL
Sequence of CDK7/Cyclin H/MAT1 complex (P51948 whole entry partner): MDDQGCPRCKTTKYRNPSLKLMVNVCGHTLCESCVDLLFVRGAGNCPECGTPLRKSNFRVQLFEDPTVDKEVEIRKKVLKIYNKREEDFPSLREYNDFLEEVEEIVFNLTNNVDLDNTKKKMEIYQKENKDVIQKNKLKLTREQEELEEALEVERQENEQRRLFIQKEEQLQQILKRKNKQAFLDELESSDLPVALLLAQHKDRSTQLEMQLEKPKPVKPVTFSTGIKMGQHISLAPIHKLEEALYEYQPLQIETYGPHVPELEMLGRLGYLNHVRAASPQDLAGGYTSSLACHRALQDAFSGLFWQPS
Sequence of CDK9/Cyclin T1 complex (P50750 whole entry, the tested form may be a part): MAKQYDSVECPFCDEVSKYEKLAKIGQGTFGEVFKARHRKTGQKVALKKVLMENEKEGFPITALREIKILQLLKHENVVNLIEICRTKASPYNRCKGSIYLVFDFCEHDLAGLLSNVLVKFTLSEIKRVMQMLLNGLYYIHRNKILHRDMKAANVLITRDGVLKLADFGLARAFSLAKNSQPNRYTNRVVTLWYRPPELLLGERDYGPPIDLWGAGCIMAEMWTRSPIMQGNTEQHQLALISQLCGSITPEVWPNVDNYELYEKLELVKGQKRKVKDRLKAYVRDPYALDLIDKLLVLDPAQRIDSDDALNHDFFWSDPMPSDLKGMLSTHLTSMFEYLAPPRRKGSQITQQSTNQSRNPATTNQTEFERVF
Sequence of CDK9/Cyclin T1 complex (O60563 whole entry partner, the tested form may be a part): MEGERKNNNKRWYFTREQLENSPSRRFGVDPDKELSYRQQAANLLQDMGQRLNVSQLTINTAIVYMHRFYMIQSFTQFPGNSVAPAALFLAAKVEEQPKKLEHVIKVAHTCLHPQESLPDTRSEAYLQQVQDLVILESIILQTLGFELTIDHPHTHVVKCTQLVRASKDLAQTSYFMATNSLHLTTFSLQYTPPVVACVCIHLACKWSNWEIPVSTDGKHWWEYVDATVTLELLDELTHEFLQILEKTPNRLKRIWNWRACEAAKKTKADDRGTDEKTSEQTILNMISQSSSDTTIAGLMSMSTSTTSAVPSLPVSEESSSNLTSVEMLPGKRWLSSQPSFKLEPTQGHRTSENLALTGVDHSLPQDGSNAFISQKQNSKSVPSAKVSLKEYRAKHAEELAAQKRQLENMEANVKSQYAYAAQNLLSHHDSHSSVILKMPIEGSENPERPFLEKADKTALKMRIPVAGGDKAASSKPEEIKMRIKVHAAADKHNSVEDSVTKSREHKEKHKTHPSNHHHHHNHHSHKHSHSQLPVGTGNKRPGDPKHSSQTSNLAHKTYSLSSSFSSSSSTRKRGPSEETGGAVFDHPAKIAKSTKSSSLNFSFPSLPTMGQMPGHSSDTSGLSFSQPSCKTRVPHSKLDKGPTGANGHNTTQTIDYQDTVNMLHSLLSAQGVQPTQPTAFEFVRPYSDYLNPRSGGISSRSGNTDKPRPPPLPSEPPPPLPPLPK

## Cn1nncc1-c1ccc2c(-c3nc(N[C@H]4CCCNC4)ncc3C(F)(F)F)c[nH]c2c1 [Compound 126]
[1]
  IC50: < 100 nM
[2]
  IC50: 100 to 500 nM
[3]
  IC50: < 100 nM
[4]
  IC50: < 100 nM
[5]
  IC50: > 500 nM
[6]
  IC50: < 30 nM
[7]
  IC50: > 500 nM
[8]
  IC50: > 500 nM

## CC1(C)CNC[C@@H](Nc2ncc(C(F)(F)F)c(-c3c[nH]c4cc(-c5nccs5)ccc34)n2)C1 [Compound 109]
[1]
  IC50: 100 to 500 nM
[2]
  IC50: < 100 nM
[3]
  IC50: < 100 nM
[4]
  IC50: 100 to 500 nM
[5]
  IC50: > 500 nM
[6]
  IC50: < 30 nM
[7]
  IC50: > 500 nM
[8]
  IC50: > 500 nM

## Cc1nc(-c2ccc3c(-c4nc(N[C@H]5CCCNC5)ncc4C(F)(F)F)c[nH]c3c2)no1 [Compound 129, 4-[6-(5-methyl-1,2,4-oxadiazol-3-yl)-1H-indol-3-yl]-N-[(3S)-3-piperidyl]-5-(trifluoromethyl)pyrimidin-2-amine]
[1]
  IC50: < 100 nM
[2]
  IC50: < 100 nM
[3]
  IC50: < 100 nM
[4]
  IC50: < 100 nM
[5]
  IC50: > 500 nM
[6]
  IC50: < 30 nM
[7]
  IC50: > 500 nM
[8]
  IC50: > 500 nM

## CO[C@@H]1CCNC[C@H]1Nc1ncc(C(F)(F)F)c(-c2c[nH]c3nc(-c4c(C)noc4C)ccc23)n1 (single isomer, unassigned) [Compound 117]
[1]
  IC50: 100 to 500 nM
[2]
  IC50: 500 to 1000 nM
[3]
  IC50: < 100 nM
[4]
  IC50: < 100 nM
[5]
  IC50: > 500 nM
[6]
  IC50: < 30 nM
[7]
  IC50: > 500 nM
[8]
  IC50: > 500 nM

## Cc1noc(C)c1-c1ccc2c(-c3nc(N[C@H]4CC[C@H](C)NC4)ncc3C(F)(F)F)c[nH]c2n1 [Compound 124, 4-[6-(3,5-dimethylisoxazol-4-yl)-1H-pyrrolo-[2,3-b]-pyridin-3-yl]-N-[(3S,6S)-6-methyl-3-piperidyl]-5-(trifluoromethyl)pyrimidin-2-amine]
[1]
  IC50: < 100 nM
[2]
  IC50: < 100 nM
[3]
  IC50: < 100 nM
[4]
  IC50: < 100 nM
[5]
  IC50: > 500 nM
[6]
  IC50: < 30 nM
[7]
  IC50: > 500 nM
[8]
  IC50: > 500 nM

## CC1(C)CNC[C@@H](Nc2ncc(C(F)(F)F)c(-c3c[nH]c4nc(-c5nccs5)ccc34)n2)C1 [Compound 137, N-[(3S)-5,5-dimethyl-3-piperidyl]-4-(6-thiazol-2-yl-1H-pyrrolo[2,3-b]pyridin-3-yl)-5-(trifluoromethyl)pyrimidin-2-amine]
[1]
  IC50: < 100 nM
[2]
  IC50: < 100 nM
[3]
  IC50: < 100 nM
[4]
  IC50: < 100 nM
[5]
  IC50: > 500 nM
[6]
  IC50: < 30 nM
[7]
  IC50: > 500 nM
[8]
  IC50: > 500 nM

## Cc1nc(-c2ccc3c(-c4nc(N[C@H]5CCCNC5)ncc4C(F)(F)F)c[nH]c3n2)no1 [Compound 139, 4-[6-(5-methyl-1,2,4-oxadiazol-3-yl)-1H-pyrrolo[2,3-b]pyridin-3-yl]-N-[(3S)-3-piperidyl]-5-(trifluoromethyl)pyrimidin-2-amine]
[1]
  IC50: < 100 nM
[2]
  IC50: > 1000 nM
[3]
  IC50: < 100 nM
[4]
  IC50: < 100 nM
[5]
  IC50: > 500 nM
[6]
  IC50: < 30 nM
[7]
  IC50: > 500 nM
[8]
  IC50: > 500 nM

## Cc1nnc(-c2ccc3c(-c4nc(N[C@H]5CCCNC5)ncc4C(F)(F)F)c[nH]c3n2)s1 [Compound 155, 4-[6-(5-methyl-1,3,4-thiadiazol-2-yl)-1H-pyrrolo[2,3-b]pyridin-3-yl]-N-[(3S)-3-piperidyl]-5-(trifluoromethyl)pyrimidin-2-amine]
[1]
  IC50: < 100 nM
[2]
  IC50: < 100 nM
[3]
  IC50: < 100 nM
[4]
  IC50: < 100 nM
[5]
  IC50: > 500 nM
[6]
  IC50: < 30 nM
[7]
  IC50: > 500 nM
[8]
  IC50: > 500 nM

## Cc1nnc(-c2ccc3c(-c4nc(N[C@H]5CC[C@H](C)NC5)ncc4C(F)(F)F)c[nH]c3n2)s1 [Compound 154, N-[(3S,6S)-6-methyl-3-piperidyl]-4-[6-(5-methyl-1,3,4-thiadiazol-2-yl)-1H-pyrrolo[2,3-b]pyridin-3-yl]-5-(trifluoromethyl)pyrimidin-2-amine]
[1]
  IC50: 100 to 500 nM
[2]
  IC50: > 1000 nM
[3]
  IC50: 100 to 500 nM
[4]
  IC50: > 1000 nM
[5]
  IC50: > 500 nM
[6]
  IC50: < 30 nM
[7]
  IC50: > 500 nM
[8]
  IC50: > 500 nM
